# Measurements as given in patent US8735622B2, “Histone demethylase inhibitors and methods for using the same” (The Regents of the University of Colorado, a body corporate, priority 2011, dated 2014).
# pEC50: −log10 of the molar value. “Also recorded” adds a separate entry of the source. Like-named read-outs stand apart in the source and are kept apart here.
# Experiments:
# [1] = test system: prolyl hydroxylases (PHDs); assay: Cellular HIF-1α level (prolyl hydroxylase specificity) in MCF7 cells; assay type: cell-based, human; conditions: 24 hours, methylstat up to 15 μM, DFO 150 μM, DMOG 1 and 2 mM
# Source text: (§1) To assess the specificity of methylstat in vivo, another iron(II)- and α-ketoglutarate-dependent dioxygenases, prolyl hydroxylases (PHDs), was examined. PHDs have been reported to regulate normoxic inactivation of hypoxia-inducible factors (HIFs) by hydroxylating specific prolyl residues of HIFs. […] DMOG and DFO have been used to mimic hypoxia conditions by inhibiting PHDs in vivo. […] Similar results were also observed in HeLa cells (see FIG. 7).
# (§2) Total lysates of cells were generated from the cells lysed in CelLytic M Cell Lysis (Sigma) with protease inhibitor cocktail (Sigma), mixed with 2×LSB buffer (100 mM Tris-HCl pH 6.8, 200 mM DTT, 4% SDS, 20% glycerol and 0.2% bromophenol blue) and boiled for 5 min before SDS-PAGE. BCA assay (Thermo) was applied for protein qualification.
# LSD1 = target: T1, LSD1 (Homo sapiens, UniProt O60341); assay: LSD1 formaldehyde dehydrogenase coupled assay; assay type: biochemical; conditions: in vitro
# T1 construct: LSD1 (full-length) was expressed as glutathione S-transferase (GST) fusions; made in house; host or cells: Escherichia coli BL-21
# Protocol: LSD1 activity was measured in a formaldehyde dehydrogenase coupled assay. 15 μL enzyme mix containing 2.4 μg GST-LSD1 in 20 mM TRIS pH 8.5, 1 mM NAD, 1.5 mU formaldehyde dehydrogenase, 0.5 mM glutathione was added, followed by pin transfer of 100 nL compound. Then reactions were started by addition of 15 μL 75 μM H3(1-20)K4me2 peptide, and NADH fluorescence was measured on a Envision Microplate Imager (Perkin Elmer Life Sciences) with excitation at 345 nm and emission at 460 nm, integration for 400 ms at 10 min and 80 min after peptide addition.
# [2] = test system: H3K4me3 and H3K9me3 levels in MCF7 cells; assay: Quantitative immunostaining assay of H3K4me3 and H3K9me3 in MCF7 cells; assay type: cell-based, human; conditions: for pEC50: Homo sapiens, 48 hours, immunostaining image quantification
# Protocol: (§3) To quantify the cellular activity of methylstat, a quantitative image-based assay was used. […] The cellular effects of methylstat were also cell type-specific.
# (§4) For quantified immunostaining experiments, KYSE150 or MCF7 cells were seeded in a 96-well plate at 10,000 cells per well and incubated at 37° C. for 24 hours. The medium was replaced and methylstat in DMSO was added at the concentration as indicated. After incubation for another 48 hours, immunostaining procedure was performed as described above using anti-H3K9me3 or anti-H3K4me3 primary antibody. Fluorescent images of cells were acquired by a Nikon Eclipse 90i fluorescence microscope and analyzed using the Cell Scoring analysis module of MetaMorph 7.0 software.
# [3] = test system: H3K4me3 and H3K9me3 levels in KYSE150 cells; assay: Quantitative immunostaining assay of H3K4me3 and H3K9me3 in KYSE150 cells; assay type: cell-based, human; conditions: for pEC50: Homo sapiens, KYSE-150, 48 hours, immunostaining image quantification
# Protocol: as §3, §4
# JMJD2A = target: T2, JMJD2A (Homo sapiens, UniProt O75164); assay: JMJD2A enzyme activity assay (DELFIA); assay type: biochemical; conditions: in vitro
# T2 construct: Recombinant protein preparation of GASC1(1-420), JMJD2A (1-420) and LSD1 (full-length); made in house; host or cells: Escherichia coli BL-21
# T2 sequence (O75164 1-420): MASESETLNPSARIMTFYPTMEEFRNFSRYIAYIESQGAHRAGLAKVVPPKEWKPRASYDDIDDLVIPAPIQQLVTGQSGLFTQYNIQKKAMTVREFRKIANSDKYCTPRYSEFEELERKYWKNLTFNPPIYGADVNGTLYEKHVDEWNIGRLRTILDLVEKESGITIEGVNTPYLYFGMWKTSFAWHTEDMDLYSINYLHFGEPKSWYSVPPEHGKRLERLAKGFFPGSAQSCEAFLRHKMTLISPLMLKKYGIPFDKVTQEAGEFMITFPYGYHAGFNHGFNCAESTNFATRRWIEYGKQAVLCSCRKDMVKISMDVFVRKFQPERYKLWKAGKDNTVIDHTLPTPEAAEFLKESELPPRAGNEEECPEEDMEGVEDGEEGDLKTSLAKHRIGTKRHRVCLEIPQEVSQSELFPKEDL
# Protocol: In order to evaluate the inhibitory activity of 1 in vitro, a GST-fusion protein of the catalytic N-terminus of human GASC1 (gene amplified in squamous cell carcinoma 1) corresponding to amino acid 1-420 was cloned and purified. […] To evaluate the enzyme specificity of 1, the activity of 1 was examined against several other related enzymes in vitro.
# The enzyme activity assays for GASC1 and JMJD2A were established on the DELFIA platform. DELFIA assays were performed in white, opaque 384-well plates coated with Streptavidin (Perkin Elmer). GST-GASC1(1-420) was diluted to 200 ng/well in 20 mM Tris HCl pH 8.5/2 mM glutathione and added in a volume of 20 μL. Blank wells received Tris/glutathione buffer only. Test compounds were diluted in DMSO and […] was pinned into the wells. Blank and control wells received only compound buffer. The reactions were initiated by the addition of 500 nM biotin-H3(1-20)K9me3 substrate, 10 μM FeSO4, 100 μM alpha-ketoglutarate in a volume of 20 μL, and incubated at room temperature for 60 minutes. The plates were washed 3 times with 100 μL of Wash Buffer (50 mM Tris pH 7.4, 150 mM NaCl, 0.05% Tween 20, 0.2% BSA). […] Time resolved fluorescence was measured after 45 minutes on an Envision Microplate Imager (Perkin Elmer Life Sciences) with 400 μs delay, excitation at 360 nm, and emission at 620 nm.
# HDACs = assay: Histone deacetylases (HDACs) enzyme inhibition assay (Fluor de Lys); assay type: biochemical; conditions: in vitro
# Protocol: The enzyme activity assay for HDAC was carried out using Fluor de Lys Fluorescent Assay System (BML-AK500, Enzo Life Sciences Inc, NY USA). The assay was performed as the manufactory guide in white 384-well plates. Time resolved fluorescence was measured on a Beckman Coulter DTX 880 plate reader with 250 ms delay, excitation at 360 nm, and emission at 530 nm.
# [4] = test system: histone methylation marks in MCF7 cells; assay: Western blotting of histone methylation marks in MCF7 cells; assay type: cell-based, human; conditions: MCF7 cells, 5, 10, 15 μM, 48 hours
# [5] = test system: prolyl hydroxylases (PHDs); assay: Cellular HIF-1α level (prolyl hydroxylase specificity) in HeLa cells; assay type: cell-based, human; conditions: 24 hours, methylstat 5, 10, 15 μM
# Source text: as §1, §2
smiles,measurement,setting,value
COC(=O)/C=C/C(=O)N(O)CCCCNCc1ccc(COC(=O)Nc2cccc3ccccc23)cc1 [methylstat],cellular HIF-1α levels / prolyl hydroxylase inhibition,[1],did not affect the cellular HIF-1α levels; also recorded: did not significantly inhibit prolyl hydroxylases
same,inhibition of FAD-dependent HDM LSD1,LSD1,did not significantly inhibit
same,increase of the H3K9me3 mark,[2],4.5 fold
same,pEC50,[2]; read-out: EC50 for H3K4me3,5.17
same,pEC50,[2]; read-out: EC50 for H3K9me3,5.20
same,increase of the H3K9me3 mark,[3],10.8 fold
same,pEC50,[3]; read-out: EC50 for H3K4me3,4.99
same,pEC50,[3]; read-out: EC50 for H3K9me3,5.07
same,inhibition of enzymatic activity of JMJD2A,JMJD2A,did not significantly inhibit
same,inhibition of histone deacetylases (HDACs),HDACs,did not significantly inhibit
same,hypermethylation of histone proteins (Western blot),[4],induced concentration-dependent hypermethylation of lysine and arginine residues; also recorded: induced hypermethylations of histone proteins in a concentration-dependent manner
same,cellular HIF-1α levels / prolyl hydroxylase inhibition,[5],did not significantly inhibit prolyl hydroxylases
